According to US9133126B2, “Fluoroalkyl dibenzoazepinone compounds” (BRISTOL-MYERS SQUIBB COMPANY, priority 2012, dated 2015):

Assay: in vitro
Conditions: human, liver microsomes, pH 7.4

half-life at 0.5 μM, ≥ 40 min:
CCC[C@H](C(N)=O)[C@@H](CCC(F)(F)F)C(=O)N[C@@H]1C(=O)Nc2ccccc2-c2ccccc21 [Example 2, (2R,3S)-N-((7S)-6-Oxo-6,7-dihydro-5H-dibenzo[b,d]azepin-7-yl)-3-propyl-2-(3,3,3-trifluoropropyl)succinamide]
NC(=O)[C@@H](CC1CC(F)(F)C1)[C@@H](CCC(F)(F)F)C(=O)N[C@@H]1C(=O)Nc2ccccc2-c2ccccc21 [Example 7, (2R,3S)-3-((3,3-difluorocyclobutyl)methyl)-N-((7S)-6-oxo-6,7-dihydro-5H-dibenzo[b,d]azepin-7-yl)-2-(3,3,3-trifluoropropyl)succinamide]
NC(=O)[C@@H](CC1CC1)[C@@H](CCC(F)(F)F)C(=O)N[C@@H]1C(=O)Nc2ccccc2-c2ccccc21 [Example 3, (2R,3S)-3-(Cyclopropylmethyl)-N-((7S)-6-oxo-6,7-dihydro-5H-dibenzo[b,d]azepin-7-yl)-2-(3,3,3-trifluoropropyl)succinamide]
NC(=O)[C@@H](c1ccccc1)[C@@H](CCC(F)(F)F)C(=O)N[C@@H]1C(=O)Nc2ccccc2-c2ccccc21 [Example 6, (2R,3R)-N-((7S)-6-Oxo-6,7-dihydro-5H-dibenzo[b,d]azepin-7-yl)-3-phenyl-2-(3,3,3-trifluoropropyl)succinamide]
Cc1cccc2c1NC(=O)[C@@H](NC(=O)[C@H](CCC(F)(F)F)[C@H](CC1CC1)C(N)=O)c1cc(F)ccc1-2 [Example 11, (2R,3S)-3-(Cyclopropylmethyl)-N-((7S)-9-fluoro-4-methyl-6-oxo-6,7-dihydro-5H-dibenzo[b,d]azepin-7-yl)-2-(3,3,3-trifluoropropyl)succinamide]
NC(=O)[C@@H](CC1CC1)[C@@H](CCC(F)(F)F)C(=O)N[C@@H]1C(=O)Nc2c(F)cccc2-c2ccccc21 [Example 5, (2R,3S)-3-(Cyclopropylmethyl)-N-((7S)-4-fluoro-6-oxo-6,7-dihydro-5H-dibenzo[b,d]azepin-7-yl)-2-(3,3,3-trifluoropropyl)succinamide]
NC(=O)[C@@H](CCC(F)(F)F)[C@@H](CCC(F)(F)F)C(=O)N[C@@H]1C(=O)Nc2c(Cl)cccc2-c2ccccc21 [Example 8, (2R,3S)-N-(4-Chloro-6-oxo-6,7-dihydro-5H-dibenzo[b,d]azepin-7-yl)-2,3-bis(3,3,3-trifluoropropyl)succinamide]
CCC[C@@H](C(=O)N[C@@H]1C(=O)Nc2ccccc2-c2ccccc21)[C@H](CCC(F)(F)F)C(N)=O [Example 4, (2R,3S)-N-((7S)-6-Oxo-6,7-dihydro-5H-dibenzo[b,d]azepin-7-yl)-2-propyl-3-(3,3,3-trifluoropropyl)succinamide]
CCC[C@H](C(N)=O)[C@@H](CCC(F)(F)F)C(=O)N[C@@H]1C(=O)Nc2c(F)cccc2-c2ccccc21 [Example 9, (2R,3S)-N-(4-Fluoro-6-oxo-6,7-dihydro-5H-dibenzo[b,d]azepin-7-yl)-3-propyl-2-(3,3,3-trifluoropropyl)succinamide]
Cc1cccc2c1NC(=O)[C@@H](NC(=O)[C@H](CCC(F)(F)F)[C@H](CCC(F)(F)F)C(N)=O)c1cc(F)ccc1-2 [Example 10, (2R,3S)-N-((7S)-9-Fluoro-4-methyl-6-oxo-6,7-dihydro-5H-dibenzo[b,d]azepin-7-yl)-2,3-bis(3,3,3-trifluoropropyl)succinamide]
